For the experiment, the system named is Staphylococcus aureus. To be noted: treated with 1M NaOH; compared to CB treated with 1M NaOH (CB-NaOH); FIG. 7.

As for `CC(C[N+](C)(C)CCSSCC[N+](C)(C)CC(C)C(=O)O)C(=O)O` (stereo not drawn) [α-mCB, carboxy-alpha-methyl-betaine disulfide], the “adsorption resistance against the biofouling of S. aureus” value was “better adsorption resistance”.
